Results reported in ChEMBL document CHEMBL3877305, “Improved Potency of Indole-Based NorA Efflux Pump Inhibitors: From Serendipity toward Rational Design and Development” (J Med Chem, 2017).
Values after ≈ are worked out from the molar mass of the structure shown.

Legend:
[1] = molecular target: T1, Quinolone resistance protein NorA (Staphylococcus aureus) (UniProt P0A0J7); assay: Inhibition of Staphylococcus aureus 1199B NorA assessed as inhibition of ethidium bromide efflux at 50 uM measured after 5 mins by fluorometric method relative to control
T1 sequence (whole entry): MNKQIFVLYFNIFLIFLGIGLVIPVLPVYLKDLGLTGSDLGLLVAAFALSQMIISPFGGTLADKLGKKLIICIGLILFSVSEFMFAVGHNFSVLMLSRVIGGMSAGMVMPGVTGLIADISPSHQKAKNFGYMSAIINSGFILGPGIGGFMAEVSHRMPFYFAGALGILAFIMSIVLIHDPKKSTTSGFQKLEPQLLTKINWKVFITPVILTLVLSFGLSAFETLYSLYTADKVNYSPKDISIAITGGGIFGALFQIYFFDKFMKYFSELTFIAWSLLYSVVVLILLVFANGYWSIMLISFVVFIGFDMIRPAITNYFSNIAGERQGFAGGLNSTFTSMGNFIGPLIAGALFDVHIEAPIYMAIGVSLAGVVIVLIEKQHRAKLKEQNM

[2] = molecular target: T2, Quinolone resistance protein NorA (Staphylococcus aureus, UniProt P0A0J7); assay: Inhibition of Staphylococcus aureus 1199B NorA assessed as inhibition of ethidium bromide efflux measured after 5 mins by fluorometric method
T2 sequence (P0A0J7 whole entry): T1 sequence (whole entry)

[3] = test system: Staphylococcus aureus; assay: Antibacterial activity against Staphylococcus aureus 1199B by microdilution method; assay type: functional
[4] = Dissociation constant, pKa of the compound; assay type: physicochemical
[5] = Solubility in D2O solution at 25 degC by 1H NMR analysis; assay type: physicochemical
[6] = Metabolic stability in human liver microsomes at 10 uM preincubated for 10 mins followed by NADPH addition measured after 30 mins by HPLC-MS/MS method; assay type: ADME; conditions: 0.5 h
[7] = molecular target: T1, Quinolone resistance protein NorA (Staphylococcus aureus); assay: Inhibition of Staphylococcus aureus 1199B NorA assessed as potentiation of ciprofloxacin-induced antibacterial activity by checkerboard assay

Structure (SMILES): CCOC(=O)c1c(C)n(Cc2ccccc2)c2ccc(OCCCN3CCN(CCCOc4ccc(F)cc4)CC3)cc12
- inhibition [1]: 53.7%

Structure (SMILES): CCOC(=O)c1c(C)n(Cc2ccccc2)c2ccc(OCC(O)CNCC(O)COc3ccc4c(c3)c(C(=O)OCC)c(C)n4Cc3ccccc3)cc12 (stereo not given)
- inhibition [1]: 78 to 100%
- IC50 [2]: 19.9 µM

Structure (SMILES): CCOC(=O)c1c(C)n(Cc2ccccc2)c2ccc(OCCCN)cc12
- MIC [3]: > 100 µg/mL

Structure (SMILES): CCOC(=O)c1c(C)n(Cc2ccccc2)c2ccc(OCCCNCc3ccccc3)cc12
- MIC [3]: > 100 µg/mL

Structure (SMILES): CCOC(=O)c1c(C)n(Cc2ccccc2)c2ccc(OCCN3CCN(CCCOc4ccccc4-c4ccccc4)CC3)cc12
- inhibition [1]: 27.1%

Structure (SMILES): CCOC(=O)c1c(C)n(Cc2ccccc2)c2ccc(OCCCNCc3ccc(Oc4nnnn4-c4ccccc4)c(OC)c3)cc12
- inhibition [1]: 95 to 96.5%
- MIC [3]: > 100 µg/mL
- IC50 [2]: 1.8 to 1.82 µM
- pKa [4]: 7.21
- solubility [5]: < 2 µM
- Stability [6]: Stable
- fractional inhibitory concentration index (FICI) [7]: 0.27

Structure (SMILES): CCOC(=O)c1c(C)n(Cc2ccccc2)c2ccc(OCCCNCc3nnnn3-c3ccccc3)cc12
- inhibition [1]: 22.8%

Structure (SMILES): OCCCN1CCN(CCCOc2ccccc2-c2ccccc2)CC1
- inhibition [1]: < 10%

Structure (SMILES): CCOC(=O)c1c(C)n(Cc2ccccc2)c2ccc(OCCCNCc3ccc(F)c(OC)c3)cc12
- inhibition [1]: 67%
- MIC [3]: 6.3 µg/mL (≈ 12.5 µM)
- IC50 [2]: 3.83 µM

Structure (SMILES): COc1cc(CNCCO)ccc1Oc1nnnn1-c1ccccc1
- inhibition [1]: < 10%

Structure (SMILES): CCOC(=O)c1c(C)n(Cc2ccccc2)c2ccc(OCCNCc3ccc(Oc4nnnn4-c4ccccc4)c(OC)c3)cc12
- inhibition [1]: 50.3%

Structure (SMILES): CCOC(=O)c1c(C)n(Cc2ccccc2)c2ccc(OCCN3CCN(CCOc4ccccc4-c4ccccc4)CC3)cc12
- inhibition [1]: 24.3 to 50%

Structure (SMILES): CCOC(=O)c1c(C)n(Cc2ccccc2)c2ccc(OCCCN3CCCCC3)cc12
- MIC [3]: > 100 µg/mL
- fractional inhibitory concentration index (FICI) [7]: 0.28

Structure (SMILES): CCOC(=O)c1c(C)n(Cc2ccccc2)c2ccc(OCCCN3CCN(CCCOc4ccccc4-c4ccccc4)CC3)cc12
- inhibition [1]: 12.1%

Structure (SMILES): CCOC(=O)c1c(C)n(Cc2ccccc2)c2ccc(OCC(O)CNCc3ccc(Oc4nnnn4-c4ccccc4)c(OC)c3)cc12 (stereo not given)
- inhibition [1]: 96.9%
- MIC [3]: > 100 µg/mL
- IC50 [2]: 4.93 µM
- fractional inhibitory concentration index (FICI) [7]: 0.13

Structure (SMILES): CCOC(=O)c1c(C)n(Cc2ccccc2)c2ccc(OCCCCNCc3ccc(Oc4nnnn4-c4ccccc4)c(OC)c3)cc12
- inhibition [1]: 101%
- MIC [3]: > 100 µg/mL
- IC50 [2]: 2.02 µM
- pKa [4]: 8.2
- solubility [5]: < 2 µM
- Stability [6]: Stable
- fractional inhibitory concentration index (FICI) [7]: 0.25
